# Reference: ChEMBL document CHEMBL1142931, “Vascular disrupting agents” (Bioorg Med Chem, 2007)
# Species on record: Homo sapiens
# Experiment: Half life in human assessed as ZD-6126-phenol
# Type: ADME, organism-based
# Conditions: in vivo
structure (smiles),measurement,value
COc1cc2c(c(OC)c1OC)-c1ccc(OP(=O)(O)O)cc1[C@@H](NC(C)=O)CC2 [ZD-6126],t1/2,2 h
